Columns and labels:
fibroblast = test: MTT assay, proliferation of fibroblast cultured in vitro; type: cell-based
Experimental: The inhibitory effect of F351 on the proliferation of fibroblast cultured in vitro was tested using the following method. F351 was dissolved in 0.5% DMSO. The fibroblast was treated with F351 of different amount (FIG. 1 and FIG. 2) for 5 days. The agent was refreshed once every 48 hrs. Pirfenidone was used in parallel experiments in order to compare the effects of these two agents.
MTT assay: […] cell suspension was added into each well of a 96-well plate, 4 parallel wells per group. The concentration of the agent and the culture time remained unchanged. Then 10 μL 5 g/L MTT (3-(4,5-dimethylthiazol-2-yl)-2,5-diphenyltetrazolium bromide) was added to each well for another 4 hrs of culture. 100 uL DMSO was added to each well. Gently vortex to make a uniform mixture. After about 10 mins, OD values at 570 nm and 630 nm were measured by an enzyme linked immune detector (BIO RAD 550). The cell viability rate was calculated in accordance with the following formula: Viability rate=[(experimental well OD570−experimental well OD630)/(control well OD570−control well OD630)]×100% Inhibition rate (or proliferation rate)=100%−viability rate

[1] = system: rat liver fibrosis model induced by DMN (dimethyl nitrosamine); test: Rat liver fibrosis model induced by DMN, liver pathology; type: in vivo
Experimental: (§1) A rat liver fibrosis model was established by induction with CCl4 and DMN (dimethyl nitrosamine)) respectively, and treated with F351 for 4 weeks, 8 weeks. The livers of the animal were harvested to observe the pathologic results. The method was as follows:
(§2) (a) Generating a carbon tetrachloride model (injected intraperitoneally with 40% CCl4 mixed with oil, 0.4 ml/100 g, twice per week, for 4 continuous weeks) and a dimethyl nitrosamine liver fibrosis model (injected intraperitoneally with 1% DMN, 10 mg/Kg, twice per week, for 8 continuous weeks).
(§3) (b) The animals of these two models were intragastrically administered with F351 from the 0 day of the model establishment, with the dose at 250 mg/Kg, once per day, for 4 or 8 continuous weeks.

[2] = system: rat liver fibrosis model induced by CCl4; test: Rat liver fibrosis model induced by CCl4, liver pathology; type: in vivo; details: 4 weeks, 250 mg/Kg intragastrically once per day, model group S4-S6, P=0.001
Experimental: as §1, §2, §3

[3] = system: liver fibrosis model induced by DMN; test: Mortality of rats in the DMN liver fibrosis model; type: in vivo, rat
Experimental: as §2, §3
(§4) The rat liver fibrosis models established by induction with CCl4 and DMN were treated with F351 in the same manner in Example 3. The body weight and mortality of the rates were observed.

[4] = system: liver fibrosis model induced by CCl4; test: Mortality of rats in the CCl4 liver fibrosis model; type: in vivo; details: 250 mg/Kg once per day
Experimental: as §2, §3, §4

[5] = system: rat with liver fibrosis induced by DMN; test: Serum transaminase (ALT) level in the DMN liver fibrosis model; type: in vivo; details: DMN model + F351, week 4; DMN model group 74±18.25, control group 27±5.09; P<0.05
Experimental: as §2, §3
(§5) The rat liver fibrosis models established by induction with CCl4 and DMN were treated with F351 in the same manner in Example 3. The serum of the rats was extracted and the level of the serum transaminase was measured.

[6] = system: rat with liver fibrosis induced by CCl4; test: Serum transaminase (ALT) level in the CCl4 liver fibrosis model; type: in vivo; details: CCl4 model + F351, week 4; CCl4 model group 52±17.15, control group 27±5.09; P<0.05
Experimental: as §2, §3, §5

## Cc1ccc(=O)n(-c2ccc(O)cc2)c1 [F351, 5-methyl-1-(4-hydroxylphenyl)-2-(1H)-pyridone]
fibroblast; FIG. 2, versus Pirfenidone control
  activity for inhibiting the fibroblast viability: higher than that of the Pirfenidone control
fibroblast; MTT assay, treated for 5 days, compared with Pirfenidone in parallel, FIG. 1 and FIG. 2
  inhibitory effect on the fibroblast: more significant than that of Pirfenidone
[1]; week 4, 250 mg/Kg intragastrically once per day, versus model group, P<0.001
  liver lesion (hepatocyte necrosis, hemorrhage, collagen deposition, fibrosis): significantly reduced
[1]; week 8, 250 mg/Kg intragastrically once per day, versus control group
  fibrosis around the sinus (pathologic results): obviously better than the control group
[2]
  pathologic changes (fibrosis dimension around the central veins and the sinus): obviously reduced
[3]; week 4, 250 mg/Kg once per day, control group 7 of 25 rats survived
  rats survived: 24
[3]; week 8, 250 mg/Kg once per day, control group 2 of 25 rats survived
  rats survived: 18
[4]
  mortality of the rats: did not increase the mortality
[5]
  ALT serum level: 54±17.25
[6]
  ALT serum level: 45±17.68
